Structures are written as SMILES. Structures can show the parent of a compound that is named as a salt.

Series [1] relates to cough experimentally induced by electric stimulation of the vagus nerve in the guinea pig. In words: Antitussive activity: cough induced by electric stimulation of the vagus nerve. Format: in vivo. As to conditions: for inhibition in vivo at 100 mg/kg / ED50: Cavia porcellus; for inhibition in vivo at 100 mg/kg: 100 mg/kg oral, stimulus 20 and 40 minutes after administration, 6 negative responses = 100%, groups of 6 guinea pigs, read-out: Percentage cough inhibition; for ED50: guinea pig, oral, vagus nerve stimulation, read-out: ED50 (dose which reduces the number of coughs by 50%); for antitussive activity (in words): conclusion from Table 3 results. On the procedure: The test consists of stimulating the vagus nerve of the guinea pig and repeating the stimulus 20 and 40 minutes after oral administration of 100 mg/kg of the product under test. 6 Negative responses (3 after 20 minutes and 3 after 40 minutes) represent a cough inhibition of 100%. The test was carried out in groups of 6 animals against groups of control animals (undosed).
In addition, for certain compounds the ED50 was also determined, i.e. that dose which reduces the number of coughs by 50%.

A further series can be described thus: Acute toxicity, oral. Conditions: guinea pig, in vivo; guinea pigs, increasing oral dose. The protocol: The acute toxicity of some of compounds of the invention was determined on guinea pigs which had received an increasing oral dose of the compound.

`CCOC(=O)N1CCN(CCC(=O)N[C@@H]2C(=O)CC[C@]3(C)c4cc(C)ccc4O[C@H]23)CC1` (relative stereo) [Example 14]: the inhibition in vivo at 100 mg/kg in series [1] is 33%. The LD50 (in general, the dose at which mortality reaches 50%) in “Acute toxicity, oral” is over 1000 mg/kg.
`Cc1ccc2c(c1)[C@@]1(C)CCC(=O)[C@@H](NC(=O)CCN3CCN(CCO)CC3)[C@H]1O2` (relative stereo) [Example 16]: the inhibition in vivo at 100 mg/kg in series [1] came to 17%.
With `Cc1ccc2c(c1)[C@@]1(C)CCC(=O)[C@@H](NC(=O)CCCCN(C)C)[C@H]1O2` (relative stereo) [Example 24, 8,9bβ-dimethyl-1,2,3,4,4aβ,9b-hexahydro-4α-[5-N,N-dimethylamino-valeramido]-dibenzofuran-3-one], in series [1], the inhibition in vivo at 100 mg/kg was found to be 83%; the 50% effective dose (ED50) (in general, the dose at which the effect has come halfway, by size or by number of responders) was 71 mg/kg; the “antitussive activity (in words)” value was “important antitussive activity”.
Take `CCN(CC(=O)N[C@@H]1C(=O)CC[C@]2(C)c3cc(C)ccc3O[C@H]12)Cc1ccccc1` (relative stereo) [Example 8]: the 50% lethal dose (LD50) in “Acute toxicity, oral” was over 800 mg/kg.
For the compound `Cc1ccc2c(c1)[C@@]1(C)CCC(=O)[C@@H](NC(=O)CCN3CCN(c4ccccc4)CC3)[C@H]1O2` (relative stereo) [Example 15], the inhibition in vivo at 100 mg/kg in series [1] stood at 54%.
For the compound `Cc1ccc2c(c1)[C@@]1(C)CCC(=O)[C@@H](NC(=O)CCCN(C)C)[C@H]1O2` (relative stereo) [Example 23], the inhibition in vivo at 100 mg/kg in series [1] is 67%.
As for `Cc1ccc2c(c1)[C@@]1(C)CCC(=O)[C@@H](NC(=O)CN3CCN(C)CC3)[C@H]1O2` (relative stereo) [Example 4], the inhibition in vivo at 100 mg/kg in series [1] was 43%. In “Acute toxicity, oral”, the LD50 is over 800 mg/kg.
The matching figures for `Cc1ccc2c(c1)[C@@]1(C)CCC(=O)[C@@H](NC(=O)CCN3CCCCC3)[C@H]1O2` (relative stereo) [Example 12]: 46% and about 400 mg/kg.
`CC(=O)N1CCN(CCC(=O)N[C@@H]2C(=O)CC[C@]3(C)c4cc(C)ccc4O[C@H]23)CC1` (relative stereo) [Example 20]: the inhibition in vivo at 100 mg/kg in series [1] was 33%. Also, in the series “Acute toxicity, oral”, the 50% lethal dose (LD50) is over 1000 mg/kg.
For `Cc1ccc2c(c1)[C@@]1(C)CCC(=O)[C@@H](NC(=O)CCCN3CCN(C)CC3)[C@H]1O2` (relative stereo) [Example 22, 8,9bβ-dimethyl-1,2,3,4,4aβ,9b-hexahydro-4α-[4-(4-methylpiperazin-1-yl)-butyramido]-dibenzofuran-3-one], the inhibition in vivo at 100 mg/kg in series [1] turned out to be 72%.
With `CCN1CCN(CCC(=O)N[C@@H]2C(=O)CC[C@]3(C)c4cc(C)ccc4O[C@H]23)CC1` (relative stereo) [Example 21], the LD50 in the series “Acute toxicity, oral” was over 1000 mg/kg.
Consider `Cc1ccc2c(c1)[C@@]1(C)CCC(=O)[C@@H](NC(=O)CCN3CCN(Cc4ccccc4)CC3)[C@H]1O2` (relative stereo) [Example 17], for which, in series [1], the inhibition in vivo at 100 mg/kg was 33%. The LD50 in “Acute toxicity, oral” is over 1000 mg/kg.
The corresponding values for `Cc1ccc2c(c1)[C@@]1(C)CCC(=O)[C@@H](NC(=O)CCN3CCNCC3)[C@H]1O2` (relative stereo) [Example 13, 8,9bβ-1,2,3,4,4aβ,9b-hexahydro-4α-[3-piperazinopropionamido]-dibenzofuran-3-one] are 75% and over 1000 mg/kg.
In the case of `Cc1ccc2c(c1)[C@@]1(C)CCC(=O)[C@@H](NC(=O)CN3CCCC3)[C@H]1O2` (relative stereo) [Example 7], the inhibition in vivo at 100 mg/kg in series [1] worked out at 17%. This compound also gave an LD50 in “Acute toxicity, oral” of about 800 mg/kg.
In the case of `Cc1ccc2c(c1)[C@@]1(C)CCC(=O)[C@@H](NC(=O)CCN3CCOCC3)[C@H]1O2` (relative stereo) [Example 9], the inhibition in vivo at 100 mg/kg in series [1] worked out at 39%.
Take `Cc1ccc2c(c1)[C@@]1(C)CCC(=O)[C@@H](NC(=O)CCCCCN(C)C)[C@H]1O2` (relative stereo) [Example 25]: in series [1], the inhibition in vivo at 100 mg/kg is 25%.
For `CCN(CC)CCC(=O)N[C@@H]1C(=O)CC[C@]2(C)c3cc(C)ccc3O[C@H]12` (relative stereo) [Example 19], the inhibition in vivo at 100 mg/kg in series [1] came out at 33%.
For `Cc1ccc2c(c1)[C@@]1(C)CCC(=O)[C@@H](NC(=O)CCN(C)CCN(C)C)[C@H]1O2` (relative stereo) [Example 18], the inhibition in vivo at 100 mg/kg in series [1] is 50%. This compound showed a median lethal dose (LD50) in the series “Acute toxicity, oral” of over 1000 mg/kg.
As to `Cc1ccc2c(c1)[C@@]1(C)CCC(=O)[C@@H](NC(=O)CCN3CCCC3)[C@H]1O2` (relative stereo) [Example 11], in series [1], the inhibition in vivo at 100 mg/kg came out at 44%. The compound also gave a median lethal dose (LD50) in the series “Acute toxicity, oral” of about 600 mg/kg.
As to `Cc1ccc2c(c1)[C@@]1(C)CCC(=O)[C@@H](NC(=O)CCN(C)C)[C@H]1O2` (relative stereo) [Example 10, 8,9bβ-dimethyl-1,2,3,4,4aβ,9b-hexahydro-4α-[3-N,N-dimethylamino-propionamido]-dibenzofuran-3-one], in series [1], the inhibition in vivo at 100 mg/kg stood at 89% and the “antitussive activity (in words)” value is on record as “important antitussive activity”. This compound had an LD50 in “Acute toxicity, oral” of 500 to 1000 mg/kg.
Consider `Cc1ccc2c(c1)[C@@]1(C)CCC(=O)[C@@H](NC(=O)CCN3CCN(C)CC3)[C@H]1O2` (relative stereo) [Example 1, 8,9bβ-dimethyl-1,2,3,4,4aβ,9b-hexahydro-4α-[3-(4-methylpiperazin-1-yl)-propionamido]-dibenzofuran-3-one dihydrochloride], for which, in series [1], the inhibition in vivo at 100 mg/kg was found to be 100%, the ED50 was determined as 32.5 mg/kg and the “antitussive activity (in words)” value is on record as “important antitussive activity”. Besides, the median lethal dose (LD50) in “Acute toxicity, oral” came to 1480 mg/kg.

Source of the values: patent US4010268A, “Derivatives of hexahydrodibenzofuran-3-one, their preparation and use in pharmaceutical compositions” (Roussel-UCLAF, priority 1974, dated 1977).
